According to a melting point compilation (Tetko et al.; mined from patent text by program, amines drawn as free bases though some values may be those of a salt):

melting point	SMILES
84 to 86 °C	COc1ccc(SC2CC(=O)N2CC(=O)NCCCCCCc2ccc(Cl)cc2)cc1 (stereo not given)
158 to 161 °C	O=C(O)C(Cc1nnn[nH]1)NC(=O)C(CS)C(F)(F)F (stereo not given)
> 300 °C	Cc1ccc(C(=O)c2cccc(S(=O)(=O)O)n2)cc1
108 to 110 °C	O=[N+]([O-])c1ccc(-c2ccsc2-c2ccc(F)cc2)cc1
113 to 114 °C	Cc1sc(-c2ccccc2)nc1COc1ccc(CCC[C@@H]2OC(=O)NC2=O)cc1
288 to 289 °C	O=C(O)c1cn2c(ccc3ccc(Cl)cc32)n1
164 °C	N#Cc1c(N2CCc3ccccc3CC2)nc(CCO)n(CCO)c1=O
96 °C	CCOc1ccc2c(c1)C(C)(c1cc(C(=O)N3CCN(C)CC3)ccc1Cl)C(=O)N2S(=O)(=O)c1ccc(C(=O)NC(C)(C)C)cc1OC (stereo not given)
< 60 °C	CC(=O)n1nc(C)c(Oc2cc(Cl)cc(Cl)c2)c1C
108 to 114 °C	CN1C(=O)C2C3CCC(C3)C2(c2ccc3c(c2)CCCC3)C1=O (stereo not given)
139 to 142 °C	O=C(O)c1ccc(OCCNC(=O)C2Cc3ccccc3N2S(=O)(=O)c2ccc(-c3ccc(F)cc3)cc2)c(C(F)(F)F)c1 (stereo not given)
129 to 131 °C	CC(=O)Oc1ccc(C(C)C)c(NC(=O)CN2CCN(CCSc3nc4ccccc4o3)CC2)c1C(C)C
197 to 198 °C	CC(C)(Cc1ccccc1)C(NC(=O)c1cc(Cl)cc(Cl)c1)Nc1c(Nc2cccnc2)c(=O)c1=O (stereo not given)
227 °C	O=C(N[C@H]1CC[C@H](CCN2CCN(c3nccc4c3CCO4)CC2)CC1)c1ccc(C(F)(F)F)cc1
158 to 159 °C	CN(C)Cc1cccc2nc3n(c12)CCCN3c1ccc(Cl)cc1Cl
220 to 221 °C	CCOC(=O)Cn1c(=O)n(Cc2ccc(Br)cc2F)c(=O)c2cc(Cl)c(Cl)cc21
116 to 118 °C	FC(F)(F)c1cccc(-c2nc(-c3ccccn3)no2)c1
141 to 143 °C	COc1ccc2cc(-c3noc4cc(OC)ccc34)ccc2c1
135 to 138 °C	CCOc1ccc(-c2nc3n(c2-c2ccc(OCC)cc2)CCC3)cc1
108 °C	COc1ccc(Nc2ccc(OCc3ccccc3)cc2)cc1
101 to 102 °C	COc1cccc(CC(=O)O)c1OCCCc1cc(C(C)C)nn1Cc1ccc(Cl)cc1Cl
250 to 253 °C	Nc1ccn(/C=C2/CC2(CO)CO)c(=O)n1
150 to 152 °C	CCN1c2ncc(/C=C/c3ccncc3)cc2C(=O)N(C)c2ccc(Cl)nc21

melting point	SMILES
274 to 275 °C	Cn1cc(-c2ccc(C(=O)O)cc2)cn1
205 to 206 °C	O=C(CCCCCCNC(=O)c1cn2c3c(cccc13)CCC2)NO
115 to 117 °C	CCOC(=O)C(=CNc1cccc(C2=NC(C)(C)Cc3cc(OC)c4c(c32)CC(C)(C)O4)c1)C(=O)OCC
160 to 162 °C	Cc1cc(NNC(=O)OC(C)(C)C)nnc1-c1cccc([N+](=O)[O-])c1
226 to 227 °C	CC(CCCO)C1CCC2C3C(O)CC4CC(O)CCC4(C)C3CC(O)C12C (stereo not given)
128 to 130 °C	CCCn1nc(C(C)C)c(C(=O)OCOC(=O)C(C)(C)C)c1Cc1ccc(-c2ccccc2-c2nnn(C(c3ccccc3)(c3ccccc3)c3ccccc3)n2)cc1
157 to 159 °C	Cc1cc(N2CCN(CC3CC3)C2=O)sc1C(=O)NCc1cccnc1
61 to 62 °C	Cc1ccc(CN2CCN(C(=O)OC(C)(C)C)CC2)cc1
152 to 153 °C	CCOC(=O)C1(C(=O)OCC)CC(c2ccc(Cl)cc2N)=CN1C(C)=O
190 to 192 °C	CCc1nnc2c(NC3CC3)nc3ccccc3n12
166 to 168 °C	COCCOC(=O)c1cc(C(=O)NOC)c(O)c2ncc(Cc3ccc(F)cc3)cc12
258 to 261 °C	Cc1coc(-c2ccc3c(c2)c2cc(-c4ccc(Cl)cc4Cl)c(=O)n(C)c2n3C)n1
156 to 158 °C	O=C(c1ccc([N+](=O)[O-])c(OCC2CO2)c1)N1CCOCC1 (stereo not given)
> 300 °C	O=C(O)c1ccc(-c2cc3cccnc3c(-c3cccc4nonc34)n2)cc1
88 to 90 °C	CC1CCN(c2cc(F)cc(C(=O)Nc3ccc(Oc4ccnc(NC5CCCC5)n4)c4ccccc34)c2)CC1
256 to 257 °C	CC(C)(C)OC(=O)Nc1cc(-c2nnc(CCc3cccc(C(F)(F)F)c3)o2)ccn1
252 to 255 °C	Cc1ccccc1-c1c2c(cc3ccc4c(c13)OCO4)C(=O)NC2
154 to 158 °C	O=C(O)C1Oc2ccccc2C2(CC2)c2cccc(Cl)c2O1 (stereo not given)
84 to 87 °C	Cc1nc2cnccc2n1-c1ccc(Cn2c(=O)oc3ccccc32)cc1
203 to 206 °C	O=C(O)Cc1ccc2c(c1)sc1cccc(Cl)c12
174 to 176 °C	CC(C)c1nc2cc(N)ccn2n1
214 to 216 °C	CCCc1c(OCc2ccc(C=CC(=O)O)c(OC)c2)ccc(C(C)=O)c1O
221 to 222 °C	O=C(NCc1ccccn1)c1nc(-c2ccccc2)c(-c2ccc(=O)[nH]n2)s1

melting point	SMILES
95 to 99 °C	CCOc1nccnn1
86 to 87 °C	COc1cc(COC(=O)CCc2nc(-c3ccc(Cl)cc3)co2)cc(OC)c1OC
210 to 213 °C	CN(CCO)C(=O)c1c(-c2ccc(C(C)(C)C)cc2)n(C)n(-c2ccc(C#N)cc2)c1=O
53 to 54 °C	CC(C)=Cc1ccc(C(C)C(=O)O)cc1 (stereo not given)
233 to 235 °C	Oc1ccc(-c2c3ccc(O)cc3cc3sc4ccccc4c23)cc1
184 to 185 °C	CC1CC(=O)NN=C1c1ccc(NCC(C)(C)N)cc1 (stereo not given)
99 to 100 °C	CCCSC1NC(c2ccc(Cl)cc2)=NN(CC(F)(F)F)C1=O (stereo not given)
75 to 76 °C	COc1cc2c(cc1C(C)(C)c1ccccc1)OCO2
117 to 118 °C	Cc1sc(N)c(C(=O)c2cccs2)c1C
145 to 146 °C	CCOc1cc(OCc2nc(-c3ccco3)oc2C)ccc1CCl
103 to 104 °C	CCOC(=O)c1ccc(OCc2nc(-c3ccccc3)oc2C)c(OC)c1
258 to 261 °C	Cc1cc(-n2c(Cl)cnc2C)cc2ccc(=O)[nH]c12
103 to 106 °C	O=C(Cn1nnnc1-c1ccsc1)OCCO
87 to 89 °C	O=C(NCC1Cc2cccc(-c3ccc(Cl)cc3Cl)c2O1)OCc1ccccc1 (stereo not given)
167 to 169 °C	O=c1c2c(oc3cc(OCCN4CCOCC4)ccc13)C(=Cc1ccccc1)CC2
95 to 98 °C	O=C1CCC(Cc2ccc(Cl)cc2)N1 (stereo not given)
139 °C	NC(=O)[C@@H](N)CN(c1ccccc1)c1ncccn1
78 °C	COc1ccc(CSCC(=O)NO)cc1OC
112 to 115 °C	C#CCNC(NCCSCc1[nH]cnc1C)=C(C#N)C#N
134 °C	N#CCOc1cccc2c1c1cccc(F)c1n2Cc1ccccc1
154 to 163 °C	Cc1cn(-c2ccc(NC(=O)c3ccc(C)c(Nc4nccc(-c5cccnc5)n4)c3)cc2C(F)(F)F)cn1
193 to 195 °C	O=C1CCC(N2Cc3c(OCc4ccc(CN5CCC(F)(F)CC5)cc4)cccc3C2=O)C(=O)N1 (stereo not given)

SMILES	melting point
Cc1nnc2n1-c1ccc(C#CCC3C(=O)Nc4ccccc43)cc1C(c1ccccc1Cl)=NC2 (stereo not given)	141 to 143 °C
CN1CCC[C@@H]1Cc1c(-c2ccccc2)[nH]c2ccccc12	132 °C
